This is an account of results in patent US20140357487A1, “PLANTS HAVING INCREASED TOLERANCE TO HERBICIDES” (BASF SE, priority 2011, published 2014).

Each structure is given as a SMILES string.

One test deals with Alopecurus HPPD. Nature of the test: HPPD activity assay, Alopecurus HPPD. It counts as biochemical. The note with it: normalized on Arabidopsis wild-type HPPD. As for the experimental part:
HPPD produces homogentisic acid and CO2 from 4-hydroxyphenylpyruvate (4-HPP) and O2. The activity assay for HPPD is based on the analysis of homogentisic acid by reversed phase HPLC.
The assay mixture can contain 150 mM potassium phosphate buffer pH 7.0, 50 mM L-ascorbic acid, 1 μM FeSO4 and 7 μg of purified enzyme in a total volume of 1 ml.
Inhibitors are dissolved in DMSO (dimethylsulfoxide) to a concentration of 20 mM or 0.5 mM, respectively. From this stock solution serial five-fold dilutions are prepared in DMSO, which are used in the assay. The respective inhibitor solution accounts for 1% of the assay volume. Thus, final inhibitor concentrations range from 200 μM to 2.5 nM or from 5 μM to 63 pM, respectively. After a preincubation of 30 min the reaction is started by adding 4-HPP to a final concentration of 0.1 mM. The reaction is allowed to proceed for 120 min at room temperature. The reaction is stopped by addition of 100 μl of 4.5 M phosphoric acid.
Activities are normalized by setting the uninhibited enzyme activity to 100%. IC50 values are calculated using non-linear regression.
The assay mixture can contain 150 mM potassium phosphate buffer pH 7.0, 50 mM L-ascorbic acid, 100 μM Catalase (Sigma-Aldrich), 1 μM FeSO4 and 0.2 units of purified HPPD enzyme in a total volume of 505 μl. […]
Inhibitors are dissolved in DMSO (dimethylsulfoxide) to a concentration of 0.5 mM. […] IC50 values are calculated using non-linear regression.
Using methods which are described in the above examples or well known in the art, purified, recombinant wildtype HPPD enzymes are characterized with respect to their kinetic properties and sensitivity towards HPPD inhibiting herbicides. Apparent michaelis constants (Km) and maximal reaction velocities (Vmax) are calculated by non-linear regression with the software GraphPad Prism 5 (GraphPad Software, La Jolla, USA) using a substrate inhibition model. […] Weighted means (by standard error) of Km and […] values are calculated from at least three independent experiments. […]

The test system of test [1] is Arabidopsis wildtype control plants. Nature of the test: Arabidopsis growth inhibition in 48-well plates, wildtype control. Type of test: in vivo, Arabidopsis thaliana. The note with it: plant growth IC50 of line divided by that of wildtype plants. As for the experimental part: Depending on the species, the plants are kept at 10-25° C. or 20-35° C. The test period extends over 3 weeks. During this time, the plants are tended and their response to the individual treatments is evaluated. Herbicide injury evaluations are taken at 2 and 3 weeks after treatment. Plant injury is rated on a scale of 0 to 9, 0 being no injury and 9 being complete death. Tolerance to coumarone-derivative herbicides can also be assessed in Arabidopsis. In this case transgenic Arabidopsis thaliana plants are assayed for improved tolerance to coumarone-derivative herbicides in 48-well plates. Seeds are surface sterilized by stirring for 5 min in ethanol+water (70+30 by volume), rinsing one time with ethanol+water (70+30 by volume) and two times with a sterile, deionized water. The seeds are resuspended in 0.1% agar dissolved in water (w/v). Four to five seeds per well are plated on solid nutrient medium consisting of half-strength Murashige Skoog nutrient solution, pH 5.8 (Murashige and Skoog (1962) Physiologia Plantarum 15: 473-497). […] Seven to ten days after seeding growth inhibition is evaluated by comparison to wild type plants. Tolerance factor is calculated by dividing the plant growth IC50 value of transgenic plants containing a HPPD and/or HST sequence by that of wildtype plants. […]

Take `CC1(C)c2cccnc2C(O)=C(c2ccc(Cl)nc2Cl)S1(=O)=O` [Inhibitor 2, 7-(2,6-dichloro-3-pyridyl)-5,5-dimethyl-6,6-dioxo-thiopyrano[4,3-b]pyridin-8-ol]: the “Normalized tolerance index TI” value with Alopecurus HPPD stood at 1.4. The molecule further returned a Tolerance factor in test [1] of 1.
In the same order, the values of `CC1=NOC(c2c(Cl)ccc(C3=C(O)c4ncccc4C(C)(C)S3(=O)=O)c2Cl)C1` (stereo not shown) [Inhibitor 1, 7-[2,4-dichloro-3-(3-methyl-4,5-dihydroisoxazol-5-yl)phenyl]-5,5-dimethyl-6,6-dioxo-thiopyrano[4,3-b]pyridin-8-ol] are 2.5 and 1.
